What was measured:
Histamine H3 receptor = Histamine H3 receptor (Cavia porcellus, UniProt Q9JI35); test: (§1) Compound was evaluated for its binding affinity against Histamine H3 receptor of guinea pig brain membrane
[1] = biological target: Histamine H3 receptor (Cavia porcellus) (UniProt Q9JI35); test: Compound was evaluated for its inhibitory activity against Histamine H3 receptor of guinea pig brain membrane at a concentration of 1 ug/mL
[2] = biological target: Histamine H3 receptor (Cavia porcellus) (UniProt Q9JI35); test: Compound was evaluated for its binding affinity against Histamine H3 receptor of guinea pig brain membrane less then 50% inhibition when screened at 1 ug/mL
Cavia porcellus = test: Effective dose was reported after intravenous administration to guinea pig; assay type: functional
[3] = biological target: Histamine H3 receptor (Cavia porcellus) (UniProt Q9JI35); test: as §1; details: concentration not given here
[4] = biological target: Histamine H3 receptor (Cavia porcellus) (UniProt Q9JI35); test: Compound was evaluated for its binding affinity against Histamine H3 receptor of guinea pig brain membrane, less then 50% inhibition when screened at 1 ug/mL
[5] = Compound at a dose 10 mg/kg was administered to rat and was evaluated for bioavailability after administration into rat at 10 mg/kg; details: in vivo, read-out: Bioavailabiility
[6] = Antagonistic activity towards dopamine uptake was calculated; assay type: functional
[7] = Compound at a dose 3 mg/kg was administered to monkey and was evaluated for half life after administration into monkey at 3 mg/kg; assay type: ADME, organism-based; details: cercopithecidae, in vivo
Cercopithecidae = test: Pharmacokinetic parameter area under curve (AUC) was measured after administration into monkey at 3 mg/kg; details: in vivo
[8] = Pharmacokinetic parameter area under curve (AUC) was measured after administration into rat at 10 mg/kg; assay type: ADME, organism-based; design: dose 10 mg/kg; details: in vivo
[9] = biological target: T1, Alpha-2A adrenergic receptor (Homo sapiens) (UniProt P08913); test: Antagonistic activity towards Alpha-2A adrenergic receptor was calculated; assay type: functional
T1 sequence (whole entry): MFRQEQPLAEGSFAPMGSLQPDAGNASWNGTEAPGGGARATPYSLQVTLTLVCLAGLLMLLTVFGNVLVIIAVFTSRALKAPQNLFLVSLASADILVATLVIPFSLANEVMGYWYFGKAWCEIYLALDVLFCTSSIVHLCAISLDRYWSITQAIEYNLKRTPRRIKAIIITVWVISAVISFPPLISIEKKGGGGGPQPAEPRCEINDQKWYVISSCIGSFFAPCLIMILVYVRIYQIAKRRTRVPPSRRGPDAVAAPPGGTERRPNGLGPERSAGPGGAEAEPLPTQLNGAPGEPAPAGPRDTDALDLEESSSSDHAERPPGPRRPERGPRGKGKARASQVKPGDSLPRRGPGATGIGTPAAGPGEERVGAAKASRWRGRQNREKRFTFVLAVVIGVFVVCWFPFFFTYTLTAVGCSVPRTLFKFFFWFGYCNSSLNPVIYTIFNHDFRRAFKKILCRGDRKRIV

[10] = Pharmacokinetic parameter Cmax was measured after administration into rat at 10 mg/kg; assay type: ADME, organism-based; design: dose 10 mg/kg; details: in vivo
[11] = Pharmacokinetic parameter Cmax was measured after administration into monkey at 3 mg/kg; assay type: ADME, organism-based; design: dose 3 mg/kg; details: cercopithecidae, in vivo, read-out: AUC

Chain of Histamine H3 receptor (Cavia porcellus) (Q9JI35 whole entry): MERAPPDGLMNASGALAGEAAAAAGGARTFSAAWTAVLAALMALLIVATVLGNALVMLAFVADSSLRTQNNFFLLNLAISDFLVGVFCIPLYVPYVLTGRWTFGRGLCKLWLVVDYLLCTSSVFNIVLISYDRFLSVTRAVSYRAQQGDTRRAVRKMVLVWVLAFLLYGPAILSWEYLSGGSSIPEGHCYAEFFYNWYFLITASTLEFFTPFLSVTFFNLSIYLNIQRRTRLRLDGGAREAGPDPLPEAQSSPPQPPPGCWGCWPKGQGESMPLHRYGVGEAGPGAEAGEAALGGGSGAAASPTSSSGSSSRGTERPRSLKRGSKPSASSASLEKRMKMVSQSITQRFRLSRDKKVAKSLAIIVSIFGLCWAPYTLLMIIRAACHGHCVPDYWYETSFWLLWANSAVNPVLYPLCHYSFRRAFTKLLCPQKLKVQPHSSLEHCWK
Chain of Histamine H3 receptor (Q9JI35 whole entry): as above

For O=C(Nc1ccc(Cl)cc1)OCc1ccc(Cc2c[nH]cn2)cc1, the Ki (Histamine H3 receptor) was 0.025 µM.

CN(Cc1ccc(Cc2cnc[nH]2)cc1)C(=O)N(C)c1cc(Cl)cc(Cl)c1 showed a Ki (Histamine H3 receptor) of 0.37 µM.

In the case of O=C(Nc1ccc(Cc2c[nH]cn2)cc1)Nc1cc(Cl)cc(Cl)c1, the inhibition [1] is reported as 36%.

In the case of O=C(NCc1ccc(Cc2c[nH]cn2)cc1)NCc1cc(C(F)(F)F)cc(C(F)(F)F)c1, the Ki (Histamine H3 receptor) is reported as 0.09 µM.

For O=C(NCc1ccccc1)NCc1ccc(Cc2c[nH]cn2)cc1, the inhibition [2] was under 50%.

Work on N=C(NCc1ccc(Cl)cc1)c1ccc(Cc2c[nH]cn2)cc1 yielded an ED50 (Cavia porcellus) of 0.3 mg/kg.

Compound O=C(NCCc1ccccc1Cl)NCc1ccc(Cc2c[nH]cn2)cc1 has a Ki (Histamine H3 receptor) of 0.43 µM.

With O=C(NCc1ccc(Cc2c[nH]cn2)cc1)Nc1cnccn1 the inhibition [3] was under 50%.

With NC(=O)NCc1ccc(Cc2c[nH]cn2)cc1 the inhibition [4] was under 50%.

In the case of O=C(NCc1cccc(Cc2c[nH]cn2)c1)Nc1cc(Cl)cc(Cl)c1, the inhibition [1] is reported as 33%.

With O=C(NCc1ccc(Cc2c[nH]cn2)cc1)Nc1cccnc1 the Ki (Histamine H3 receptor) was 0.27 µM.

O=C(Nc1ccccc1)OCc1ccc(Cc2c[nH]cn2)cc1 gave a Ki (Histamine H3 receptor) of 0.037 µM.

Work on O=C(NCc1ccc(Cc2c[nH]cn2)cc1)Nc1cc(Cl)cc(Cl)c1 yielded a bioavailability [5] of 44%, a Concentration [6] of 805 nM and a half-life [7] of 4.4 h. The AUC (Cercopithecidae) was 12600 ng·h/mL, the AUC [8] was 18100 ng·h/mL and the Concentration [9] was 207 nM. The Cmax [10] was 1700 ng/mL and the Cmax [11] was 1700 ng/mL.

O=C(NCc1ccc(Cc2c[nH]cn2)cc1)Nc1cc(Cl)nc(Cl)c1 showed a Ki (Histamine H3 receptor) of 0.003 µM.
